Experiments:
[1] = system: ARID1A-restoration OVISE cells (ARID1A Dox); assay: Cytotoxicity (SRB) assay with CalcuSyn combination analysis; format: cell-based; details: Homo sapiens, Table 3, single drug, read-out: Dm
Protocol: (§1) Short Hairpin RNA (shRNA)-Mediated Knockdown and Expression of ARID1A in ovarian and endometrial carcinoma cells. shRNA lentiviral supernatants were produced using standard protocols, as previously described^8. Vectors were transfected into HEK293FT cells using X-tremeGENE 9 DNA Transfection Reagent (from Roche). Retroviral supernatants isolated at 48 h were diluted 1:1 in culture medium and used to infect ARID1A-wildtype ES2 and KLE cell lines. Stably transfected subclones were expanded using puromycin (from Dot Scientific) drug selection. For expression of ARID1A in the ARID1A-mutant HEC-1-A cell line, pCIN4-HA-ARID1A was transfected using X-tremeGENE 9 DNA Transfection Reagent (from Roche), followed by selection with G418 (from Gibco). For expression of ARID1A in the ARID1A-mutant SKOV3 and OVISE cell lines, V5/His-tagged pLenti-puro-LacZ and pLenti-puro-ARID1A were transfected using lentivirus. Lentivirus was produced using HEK293FT cells with the second-generation packaging system pSPAX2 (Addgene plasmid) and pMD2.G (Addgene plasmid). Stably transfected subclones were expanded using puromycin and blasticidin (Gibco) drug selection.
(§2) Cytotoxicity assay. Cells were seeded in 96-well plates, with 2000 cells in 100 μL/well, and cultured for 24 h. The cells were treated with serial dilutions of drugs or without drug for an additional 72 h. Cell number was determined using a sulforhodamine B (SRB) assay, as previously described^23. Briefly, cells were fixed with 20% trichloroacetic acid (TCA), air-dried, and stained with 0.4% SRB dissolved in 1% acetic acid. After washing, protein-bound dye was solubilized with 10 mM unbuffered Tris-base solution (pH 10.5) and detected at 510 nm using a microplate reader. Percentage of cell-growth was calculated using the following formula: % cell growth=[(Absorbance sample)/(Absorbance untreated)]×100
(§3) Using CalcuSyn software (Biosoft), dose-effect curves were generated, and drug concentrations corresponding to a 50% decrease in cell number (IC50) were determined.
(§4) CIwt<0.8, =0.8 to 1.2, and >1.2 indicates synergism, an additive effect, and antagonism, respectively. A CIwt value was assigned as follows: (ED50+2ED75+3ED90)/6. Datasets from at least three independent experiments were combined, and means±SD were calculated for each combination. Teri, teriflunomide. N/A, not applicable. Statistical analysis was carried out by one-way ANOVA with Bonferroni's post-hoc test, and differences were considered significant at ***P<0.001 as compared to the ARID1A restoration group induced by doxycycline with the same drug treatment.

[2] = system: OVISE cells, ARID1A (not induced); assay: as above; format: cell-based; details: Homo sapiens, Table 3, single drug, read-out: Dm
Protocol: as §1, §2, §3, §4

OVISE cells, LacZ Dox = assay: as above; format: cell-based; details: Homo sapiens, Table 3, single drug, read-out: Dm
Protocol: as §1, §2, §3, §4

OVISE cells, LacZ = assay: as above; format: cell-based; details: Homo sapiens, Table 3, single drug, read-out: Dm
Protocol: as §1, §2, §3, §4

ES2-shARID1A xenografts = details: mouse, in vivo, ip, 4 mg/kg
Protocol: Animal Model. All animal procedures were conducted in accordance with a protocol approved by the Institutional Animal Care and Use Committee at Yale University.
Three mouse experiments were performed: (i) to assess an effect of teriflunomide on ES2 cells in vivo, (ii) to assess an effect of teriflunomide on SKOV3 cells in vivo, and (iii) to assess a combination effect of teriflunomide and AZD6738 on ES2-shARID1A cells in vivo. All experiments were performed using subcutaneous cell-xenograft models generated by injecting cells into the flanks of 6-week-old female athymic NCr-nu/nu mice (Charles River Laboratories).
Animal-human dose translation was calculated as previously described^24. Tumor volumes were measured every other day by caliper to determine tumor volume using the formula (length/2)×(width^2). […] Experiments were terminated when mean tumor volume of a vehicle ES2-shCon group reached 1000 mm^3. Tumor xenografts were excised at time of euthanasia. Representative samples were flash-frozen in liquid nitrogen for subsequent protein expression analysis by immunoblotting, as well as being formalin-fixed paraffin-embedded (alternatively, FFPE) for subsequent hematoxylin and eosin staining and immunohistochemical analysis. FFPE sections were reviewed by a pathologist (alternatively, P.H.), and cellular necrosis was quantified as % cross-sectional area of bisected tumor xenografts. […]

P-CHK1 Ser345 = assay: Immunoblot of phosphorylated CHK1 in ES2 cell lysates; format: cell-based, human; details: ES2 cells; teriflunomide 15 μM, AZD6738 1.5 μM
Protocol: Immunoblot Analysis and Co-Immunoprecipitation Assay. For immunoblotting experiments, cells were lysed in BC200 lysis buffer [20 mM Tris-HCl (pH 7.5), 200 mM NaCl, 1 mM EDTA, 0.2% Nonidet P-40 (NP-40), freshly added complete protease inhibitor cocktail (from Roche), and PhosSTOP phosphatase inhibitor (from Roche)] or in boiling SDS lysis buffer [1% SDS and 10 mM Tris-CI (pH 7.5)], as previously described^21. Protein concentrations were quantified using a modified Lowry assay, and equal protein amounts were loaded onto a 10% SDS-PAGE gel and separated by gel electrophoresis, followed by transfer to a nitrocellulose membrane. The nitrocellulose membrane was stained with Ponceau S to confirm equal protein loading and then blocked in 2% BSA in Tris-buffered saline with 0.1% Tween-20 (tris buffered saline with tween, or TBST). Primary antibody incubation was done for 2 h at room temperature or, for phospho-specific antibodies, overnight at 4° C. An HRP-conjugated secondary antibody was used, followed by detection using enhanced chemiluminescence substrate (from Pierce). Autoradiograph images were scanned and saved as unmodified TIFF images, and densitometry analysis was done with ImageJ (from NIH) software.

| SMILES | IC50 [1] | IC50 [2] | IC50 (OVISE cells, LacZ Dox) | IC50 (OVISE cells, LacZ) | Weight loss or toxicity in mice (ES2-shARID1A xenografts) | Phosphorylation of CHK1 on serine 345 (P-CHK1 Ser345) |
| --- | --- | --- | --- | --- | --- | --- |
| C/C(O)=C(\C#N)C(=O)Nc1ccc(C(F)(F)F)cc1 [Teriflunomide, teriflunomide] | 109 ± 3.18 µM | 19.1 ± 1.07 µM | 19.3 ± 1.24 µM | 18.2 ± 1.19 µM | no significant weight loss or toxicity | – |
| C[C@@H]1COCCN1c1cc(C2([S@](C)(=N)=O)CC2)nc(-c2cc[nH]c3nccc2-3)n1 [AZD6738] | 6.99 ± 0.34 µM | 0.77 ± 0.16 µM | 0.67 ± 0.11 µM | 0.7 ± 0.03 µM | – | decreased levels |
